The data set can be described thus: Dissolution of compound A in equimolar 0.2 mol/L sodium hydroxide and appearance of aqueous preparations (Examples 1 and 2). The format is physicochemical. Here is the method:
The resultant solutions (1 mL and 2 mL) were filled into vials to prepare injectable compositions of formulations 1 and 2 in Table 1.
In accordance with the formulation of preparation solution in Table 2, the compound A was dissolved in the equivalent amount (in molar ratio) of a sodium hydroxide aqueous solution (0.2 mol/L), and then mannitol, N-methylglucamine and a water for injection were added thereto to dissolve followed by sterile filtration with a filter (0.22 μm) made from Durapola (manufactured by Nihon Millipore Ltd.) to prepare a preparation solution for injectable composition A.

Turning to `Cc1c(OCC(F)(F)F)ccnc1C[S+]([O-])c1nc2ccccc2[nH]1` (centres unmarked) [Compound A, 2-[[[3-methyl-4-(2,2,2-trifluoroethoxy)-2-pyridinyl]methyl]sulfinyl]-1H-benzimidazole], the “Appearance of resultant solution” value (compound A in equimolar sodium hydroxide aqueous solution (0.2 mol/L)) was “transparent and colorless”. In addition, the “Dissolution of compound A” value (in the equivalent amount (in molar ratio) of a sodium hydroxide aqueous solution (0.2 mol/L)) is “quickly dissolved”.
